Test results as given in ChEMBL document CHEMBL1150546, “Adenosine dialdehyde analogs I: Regioselective synthesis of adenosine monoaldehydes” (Bioorg Med Chem Lett, 1996).
In brackets after ≈: the same amount, converted by molar mass.

Assays:
Adenosylhomocysteinase [1] = biological target: T1, Adenosylhomocysteinase (Homo sapiens, UniProt P23526); assay: Compound was tested for competitive inhibition against S-adenosyl homocysteine (SAH) hydrolase.
Target sequence in this assay (P23526 whole entry): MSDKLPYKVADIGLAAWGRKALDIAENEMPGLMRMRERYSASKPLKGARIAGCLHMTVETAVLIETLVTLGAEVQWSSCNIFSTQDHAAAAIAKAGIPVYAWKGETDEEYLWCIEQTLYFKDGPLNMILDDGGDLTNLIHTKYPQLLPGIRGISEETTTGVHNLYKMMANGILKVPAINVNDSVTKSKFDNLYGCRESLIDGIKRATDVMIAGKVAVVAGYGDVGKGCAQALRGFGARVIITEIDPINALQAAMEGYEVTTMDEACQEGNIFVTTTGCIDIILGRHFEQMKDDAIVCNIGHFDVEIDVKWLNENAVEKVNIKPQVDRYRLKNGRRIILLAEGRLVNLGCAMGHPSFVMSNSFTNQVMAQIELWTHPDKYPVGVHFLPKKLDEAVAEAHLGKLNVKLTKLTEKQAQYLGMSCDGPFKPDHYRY

Adenosylhomocysteinase [2] = biological target: T1, Adenosylhomocysteinase; assay: Percentage inhibition of S-adenosyl homocysteine (SAH) hydrolase by the compound at a concentration of 10 uM.
Target sequence in this assay (P23526 2-432 limits assumed): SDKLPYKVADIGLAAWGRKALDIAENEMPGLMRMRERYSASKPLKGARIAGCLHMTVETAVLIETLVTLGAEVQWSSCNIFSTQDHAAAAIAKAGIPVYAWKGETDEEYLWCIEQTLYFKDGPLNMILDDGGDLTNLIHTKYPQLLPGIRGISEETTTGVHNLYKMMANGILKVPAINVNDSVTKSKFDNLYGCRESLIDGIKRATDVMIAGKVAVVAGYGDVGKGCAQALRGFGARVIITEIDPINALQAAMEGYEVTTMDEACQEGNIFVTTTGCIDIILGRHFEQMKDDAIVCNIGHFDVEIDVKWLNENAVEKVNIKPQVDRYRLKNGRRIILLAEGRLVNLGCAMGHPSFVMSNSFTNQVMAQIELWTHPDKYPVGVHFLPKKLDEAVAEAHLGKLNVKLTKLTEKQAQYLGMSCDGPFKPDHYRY

Vero = assay: cells; conditions: Chlorocebus sabaeus
L929 = assay: cells; conditions: Mus musculus
Adenosylhomocysteinase [3] = biological target: T1, Adenosylhomocysteinase; assay: Compound was tested for inhibition of S-adenosyl homocysteine (SAH) hydrolase.
Target sequence in this assay (P23526 whole entry): as the sequence (P23526 whole entry) above

Row | SMILES | Ki (Adenosylhomocysteinase [1]) [nM] | inhibition (Adenosylhomocysteinase [2]) [%] | IC50 (Vero) [µg/mL] | IC50 (L929) [µg/mL] | Ki (Adenosylhomocysteinase [3]) [nM]
1 | Nc1ncnc2c1ncn2[C@@H](CO)O[C@@H](C=O)CO | 1900 | 89 | 0.41 (≈ 1.53 µM) | 1.9 (≈ 7.11 µM) | 
2 | Nc1ncnc2c1ncn2[C@@H](C=O)OC(CO)CO |  | 4 |  |  | 
3 | C=C(C=O)OC(C=O)n1cnc2c(N)ncnc21 (stereo unspecified) |  |  | 11.5 (≈ 46.5 µM) | 8.9 (≈ 36 µM) | 0.5
4 | Nc1ncnc2c1ncn2C(C=O)OC(C=O)CO (stereo unspecified) |  |  | 0.41 (≈ 1.55 µM) | 3.1 (≈ 11.7 µM) | 3.3
